Assay results from patent US10301355B2, “Method of using pharmaceutical compositions comprising selective peptide-based agonists of melanocortin 1 receptor” (University of Cincinnati, priority 2012, dated 2019).
“Also recorded” adds a separate entry of the source.

Assays:
Assay type in all cases: cell-based
MC1R [1] = biological target: T1, MC1R (Homo sapiens, UniProt Q01726); test: Stimulation of cAMP formation in cultured human melanocytes; parameters: endogenous in cells; host or cells: cultured human melanocytes; settings: for cAMP compared to 10 nM αMSH: cultured human melanocytes
Experimental: Peptides were tested on cultured human melanocytes for their capacity to activate MC1R, as measured by stimulating cAMP formation. After 45 minutes of treatment with different concentrations of peptides, cAMP levels were measured using a I^125-labeled radioimmunoassay kit.
(§1) Peptides were tested as described in Example 4 above on cultured human melanocytes for their capacity to activate MC1R, as measured by stimulating cAMP formation, and for their capacity for stimulating tyrosinase activity, the rate-limiting enzyme for melanin synthesis. The tested peptides were synthesized according to the formula: Ar(CH2)mX^1—X^2—CO—X^3—X^4—X^5-(Trp)n-NX^6R wherein X^1 and X^2 are absent, X^3 is His, X^5 is Arg, and X^6 is H. X^4 amino acids were in the D-stereoisomer form, unless otherwise noted.

hMC5R = biological target: T2, hMC5R (Homo sapiens, UniProt P33032); test: cAMP stimulation in heterologous cells expressing hMC5R
T2 construct: expressed in transfected cells
Experimental: (§2) Receptor selectivity of peptide agonists for hMC1R was determined by stimulation of cAMP in heterologous cells expressing different human melanocortin receptors (MC1R, MC3R, MC4R, and MC5R).

MC1R [2] = biological target: T1, MC1R; test: cAMP stimulation in heterologous cells expressing hMC1R; parameters: expressed in transfected cells; settings: for HMC1R % MAX. ACTIVITY: cAMP, heterologous cells
Experimental: as §2

tyrosinase = test: Stimulation of tyrosinase activity in cultured human melanocytes; settings: for TA compared to 10 nM αMSH: tyrosinase activity, cultured human melanocytes; for effect on tyrosinase activity, comparison / concentration at which significant stimulation of tyrosinase activity begins: human melanocytes, 6 days treatment
Experimental: Peptides were tested on cultured human melanocytes for their capacity for stimulating tyrosinase activity, the rate-limiting enzyme for melanin synthesis. Melanocytes were treated every other day, for a total of 6 days, with increasing concentrations of peptides. Medium containing H^3-tyrosine, the substrate for tyrosinase, was added to melanocytes 24 hours before the end of the 6-day treatment. Tyrosinase activity was measured by determining the amount of ^3H2O generated as […] is catalyzed by tyrosinase for melanin synthesis.
as §1

hMC3R = biological target: T3, hMC3R (Homo sapiens, UniProt P41968); test: cAMP stimulation in heterologous cells expressing hMC3R
T3 construct: expressed in transfected cells
Experimental: as §2

hMC4R = biological target: T4, hMC4R (Homo sapiens, UniProt P32245); test: cAMP stimulation in heterologous cells expressing hMC4R
T4 construct: expressed in transfected cells
Experimental: as §2

[3] = tested on: UV-irradiated human melanocytes; test: Repair of UV-induced cyclobutane pyrimidine dimers (CPD); settings: peptide at 1 nM, 48 hours post UV
Experimental: To investigate the effects of peptides on the repair of UV-induced DNA damage, levels of cyclobutane pyrimidine dimers (CPD), the major form of DNA photoproducts, were measured in UV-irradiated human melanocytes with or without peptide treatment. Melanocytes were pretreated with the peptides for 4 days prior to, and for 48 hours post UV exposure, harvested, immunostained by a specific antibody for CPD, and analyzed by flow cytometry.

[4] = tested on: UV-irradiated human melanocytes; test: Repair of UV-induced 8-oxodG; settings: peptide at 100 nM, 24 hours post UV
Experimental: To investigate the effects of peptides on repair of UV-induced DNA damage, levels of 8-oxodG, a major form of oxidative DNA damage, were measured in UV-irradiated human melanocytes with or without peptide treatment. […] Fluorescence intensity, which correlates with the amount of DNA damage, was quantified using ImagJ software.

[5] = human melanocytes, 45 minutes of treatment

T2 sequence (P33032 whole entry): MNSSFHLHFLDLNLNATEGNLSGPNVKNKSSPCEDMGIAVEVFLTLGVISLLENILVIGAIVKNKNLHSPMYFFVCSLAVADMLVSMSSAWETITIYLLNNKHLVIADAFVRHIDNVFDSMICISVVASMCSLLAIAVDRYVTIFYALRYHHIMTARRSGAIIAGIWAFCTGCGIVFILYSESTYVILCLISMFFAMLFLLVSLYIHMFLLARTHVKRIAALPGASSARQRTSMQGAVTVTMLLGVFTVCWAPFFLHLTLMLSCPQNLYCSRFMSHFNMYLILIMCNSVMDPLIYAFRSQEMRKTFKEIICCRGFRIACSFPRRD
T1 sequence (Q01726 whole entry): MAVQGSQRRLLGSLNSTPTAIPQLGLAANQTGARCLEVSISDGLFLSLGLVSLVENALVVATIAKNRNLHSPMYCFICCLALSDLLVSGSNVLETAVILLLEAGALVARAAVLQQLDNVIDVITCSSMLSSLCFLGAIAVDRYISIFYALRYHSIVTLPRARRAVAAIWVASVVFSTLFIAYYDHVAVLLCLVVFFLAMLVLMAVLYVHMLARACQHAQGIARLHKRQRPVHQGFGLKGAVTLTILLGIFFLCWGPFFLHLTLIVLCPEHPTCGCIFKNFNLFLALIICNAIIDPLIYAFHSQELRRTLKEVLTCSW
T4 sequence (P32245 whole entry): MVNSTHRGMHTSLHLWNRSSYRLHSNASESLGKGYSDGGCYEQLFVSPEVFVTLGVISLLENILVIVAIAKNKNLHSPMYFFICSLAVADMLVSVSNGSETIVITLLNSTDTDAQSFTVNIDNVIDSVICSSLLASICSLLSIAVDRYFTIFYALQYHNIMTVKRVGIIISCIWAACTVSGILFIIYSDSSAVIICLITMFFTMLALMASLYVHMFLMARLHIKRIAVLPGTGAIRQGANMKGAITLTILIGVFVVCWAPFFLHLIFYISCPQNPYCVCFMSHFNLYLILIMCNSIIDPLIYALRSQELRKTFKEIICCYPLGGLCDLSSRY
T3 sequence (P41968 whole entry): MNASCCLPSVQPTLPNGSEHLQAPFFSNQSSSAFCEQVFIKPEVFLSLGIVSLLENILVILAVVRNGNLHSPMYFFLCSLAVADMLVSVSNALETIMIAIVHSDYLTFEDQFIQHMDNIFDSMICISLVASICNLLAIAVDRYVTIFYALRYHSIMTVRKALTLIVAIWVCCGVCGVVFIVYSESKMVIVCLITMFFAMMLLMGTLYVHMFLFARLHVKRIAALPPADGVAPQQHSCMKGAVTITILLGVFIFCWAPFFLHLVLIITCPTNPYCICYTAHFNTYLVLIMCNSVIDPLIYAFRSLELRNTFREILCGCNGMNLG

Ph(CH2)3CO-His-(D-4-FPhe)-Arg-Trp-NH2 [470P]
cAMP compared to 10 nM αMSH (MC1R [1]): >

melanotan II [MT-II, reference compound]
HMC5R % MAX. ACTIVITY (hMC5R; cAMP, heterologous cells): 100% | HMC1R % MAX. ACTIVITY (MC1R [2]): 103%

Ph(CH2)3CO-His-(D-2-Nal)-Arg-NH2 [515P]
TA compared to 10 nM αMSH (tyrosinase): <<

Ph(CH2)3CO-His-(D-1-Nal)-Arg-NHEt [491P]
cAMP compared to 10 nM αMSH (MC1R [1]): NR (NR = No Response/inactive at 10 nM)

4-FC6H4CH2CO-His-(D-2-Nal)-Arg-NHEt [496P]
cAMP compared to 10 nM αMSH (MC1R [1]): NR (NR = No Response/inactive at 10 nM)

4-FC6H4CH2CO-His-(D-4-tBuPhe)-Arg-NHEt [498P]
cAMP compared to 10 nM αMSH (MC1R [1]): NR** (NR = No Response/inactive at 10 nM)

Ph(CH2)3CO-His-(D-4-IPhe)-Arg-Trp-NH2 [475P]
cAMP compared to 10 nM αMSH (MC1R [1]): <; >

N=C(N)NCCC[C@H](NC(=O)[C@@H](Cc1ccccc1)NC(=O)[C@H](Cc1c[nH]cn1)NC(=O)CCCc1ccccc1)C(=O)N[C@@H](Cc1c[nH]c2ccccc12)C(N)=O [LK-184, Ph(CH2)3CO-His-(D-Phe)-Arg-Trp-NH2]
HMC3R % MAX. ACTIVITY (hMC3R; cAMP, heterologous cells): 85% | HMC4R % MAX. ACTIVITY (hMC4R; cAMP, heterologous cells): 102% | HMC5R % MAX. ACTIVITY (hMC5R; cAMP, heterologous cells): 39% | effect on tyrosinase activity, comparison (tyrosinase): comparable effects in tyrosinase activity | CPD removal compared with 10 nM α-MSH [3]: same effect at 1 nM on CPD removal as 10 nM a-MSH; also recorded: same effect at 1 nM on CPD removal as 10 nM α-MSH | HMC1R % MAX. ACTIVITY (MC1R [2]): 128% | concentration giving maximal levels of cAMP (MC1R [1]; [5]): 10 nM

Ph(CH2)3CO-His-(D-4-tBuPhe)-Arg-NHMe [516P]
TA compared to 10 nM αMSH (tyrosinase): <<

CC(C)(C)c1ccc(C[C@@H](NC(=O)[C@H](Cc2c[nH]cn2)NC(=O)CCCc2ccccc2)C(=O)N[C@@H](CCCNC(=N)N)C(N)=O)cc1 [LK-514, Ph(CH2)3CO-His-(D-4-tBuPhe)-Arg-NH2]
binding of MC3R (hMC3R): do not bind | binding of MC4R (hMC4R): do not bind | binding of MC5R (hMC5R): do not bind | concentration at which significant stimulation of tyrosinase activity begins (tyrosinase): 1 nM | effect on tyrosinase activity, comparison (tyrosinase): the most effective | TA compared to 10 nM αMSH (tyrosinase): < | reduction of 8-oxodG levels compared with 1 nM α-MSH [4]: greater effect than 1 nM α-MSH | potency in activation of MC1R compared with MT-II (MC1R [2]): about as potent as MT-II | HMC1R % MAX. ACTIVITY (MC1R [2]): 94% | cAMP compared to 10 nM αMSH (MC1R [1]): < | potency in stimulating cAMP formation, comparison (MC1R [1]; [5]): about ten times less potent than a-MSH; also recorded: more potent than LK-511 or 513; also recorded: about ten times less potent than α-MSH; also recorded: more potent than LK-511 or LK-513

N=C(N)NCCC[C@H](NC(=O)[C@@H](Cc1ccc(-c2ccccc2)cc1)NC(=O)[C@H](Cc1c[nH]cn1)NC(=O)CCCc1ccccc1)C(N)=O [LK-511, Ph(CH2)3CO-His-(D-4-Bip)-Arg-NH2]
binding of MC3R (hMC3R): do not bind | HMC3R EC50 (hMC3R; cAMP, heterologous cells): INACTIVE | binding of MC4R (hMC4R): do not bind | HMC4R EC50 (hMC4R; cAMP, heterologous cells): INACTIVE | binding of MC5R (hMC5R): do not bind | HMC5R EC50 (hMC5R; cAMP, heterologous cells): INACTIVE | concentration at which significant stimulation of tyrosinase activity begins (tyrosinase): 1 nM | TA compared to 10 nM αMSH (tyrosinase): < | potency in activation of MC1R compared with MT-II (MC1R [2]): about as potent as MT-II | HMC1R % MAX. ACTIVITY (MC1R [2]): 88% | cAMP compared to 10 nM αMSH (MC1R [1]): < | potency in stimulating cAMP formation, comparison (MC1R [1]; [5]): about ten times less potent than a-MSH; also recorded: about ten times less potent than α-MSH

4-FC6H4CH2CO-His-(D-4-FPhe)-Arg-Trp-NH2 [205P]
TA compared to 10 nM αMSH (tyrosinase): ≥ | cAMP compared to 10 nM αMSH (MC1R [1]): ≤

Ph(CH2)3CO-His-(D-Phe)-Arg-Trp-NHEt [LK-487]
effect on tyrosinase activity, comparison (tyrosinase): equipotent to LK-467 | cAMP compared to 10 nM αMSH (MC1R [1]): >* | potency in stimulating cAMP formation, comparison (MC1R [1]; [5]): equipotent to LK-467

Ph(CH2)3CO-His-(D-4-ClPhe)-Arg-Trp-NH2 [473P]
cAMP compared to 10 nM αMSH (MC1R [1]): =; >

Ph(CH2)3CO-His-(D-2-Nal)-Arg-NHMe [517P]
TA compared to 10 nM αMSH (tyrosinase): <<<
